“And” between values parts separate entries of the source, which are not always exact repeats. Identical values can stand only once.
Experiments:
Experiment in all cases: NCI one-dose screen
Type in all cases: cell-based, human
[1] = test system: A549/ATCC; conditions: NSCLC A549/ATCC, 10 µM single dose
Outline: (§1)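 At 10 μM, a single concentration, compounds were evaluated for antiproliferative effect in the NCI 60-line screen, with growth expressed relative to untreated control cells.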

[2] = test system: ACHN; conditions: Renal ACHN, 10 µM single dose
Outline: as §1

[3] = test system: BT-549; conditions: Breast BT-549, 10 µM single dose
Outline: as §1

[4] = test system: CAKI-1; conditions: Renal CAKI-1, 10 µM single dose
Outline: as §1

[5] = test system: CCRF-CEM; conditions: Leukemia CCRF-CEM, 10 µM single dose
Outline: as §1

[6] = test system: COLO 205; conditions: Colon COLO 205, 10 µM single dose
Outline: as §1

[7] = test system: DU-145; conditions: Prostate DU-145, 10 µM single dose
Outline: as §1

[8] = test system: EKVX; conditions: NSCLC EKVX, 10 µM single dose
Outline: (§2)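 Single dose of 10 μM tested across the full NCI-60 cell panel. Values are percent growth inhibition relative to untreated control cells, following standard NCI methodology.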

[9] = test system: HCT-116; conditions: Colon HCT-116, 10 µM single dose
Outline: as §1

[10] = test system: HL-60(TB); conditions: Leukemia HL-60(TB), 10 µM single dose
Outline: as §1

[11] = test system: HOP-62; conditions: NSCLC HOP-62, 10 µM single dose
Outline: (§3)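 One concentration (10 μM) applied to each line of the full NCI-60 panel; percent growth compared against untreated cells.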

[12] = test system: HS 578T; conditions: Breast HS 578T, 10 µM single dose
Outline: as §1

[13] = test system: LOX IMVI; conditions: Melanoma LOX IMVI, 10 µM single dose
Outline: as §1

[14] = test system: MALME-3M; conditions: Melanoma MALME-3M, 10 µM single dose
Outline: as §1

[15] = test system: MCF7; conditions: Breast MCF7, 10 µM single dose
Outline: (§4)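 Percent inhibition; single 10 μM dose; NCI-60 cell panel; untreated cells as reference.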

[16] = test system: MDA-MB-231/ATCC; conditions: Breast MDA-MB-231/ATCC, 10 µM single dose
Outline: as §1

[17] = test system: MOLT-4; conditions: Leukemia MOLT-4, 10 µM single dose
Outline: as §4

[18] = test system: NCI-H226; conditions: NSCLC NCI-H226, 10 µM single dose
Outline: as §2

[19] = test system: NCI-H322M; conditions: NSCLC NCI-H322M, 10 µM single dose
Outline: as §1

[20] = test system: NCI-H460; conditions: NSCLC NCI-H460, 10 µM single dose
Outline: as §1

[21] = test system: NCI-H522; conditions: NSCLC NCI-H522, 10 µM single dose
Outline: as §2

[22] = test system: NCI/ADR-RES; conditions: Ovarian NCI/ADR-RES, 10 µM single dose
Outline: as §1

[23] = test system: OVCAR-3; conditions: Ovarian OVCAR-3, 10 µM single dose
Outline: as §1

[24] = test system: OVCAR-8; conditions: Ovarian OVCAR-8, 10 µM single dose
Outline: as §1

[25] = test system: PC-3; conditions: Prostate PC-3, 10 µM single dose
Outline: (§5)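 Following the standard NCI-60 protocol, compounds were applied once at 10 μM to all 60 cancer lines. Read-out is percent growth versus untreated controls, expressed as inhibition %.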

[26] = test system: RXF 393; conditions: Renal RXF 393, 10 µM single dose
Outline: as §1

[27] = test system: SF-268; conditions: CNS SF-268, 10 µM single dose
Outline: as §4

[28] = test system: SF-295; conditions: CNS SF-295, 10 µM single dose
Outline: as §1

[29] = test system: SF-539; conditions: CNS SF-539, 10 µM single dose
Outline: as §4

[30] = test system: SK-MEL-28; conditions: Melanoma SK-MEL-28, 10 µM single dose
Outline: as §5

[31] = test system: SN12C; conditions: Renal SN12C, 10 µM single dose
Outline: as §1

[32] = test system: SNB-19; conditions: CNS SNB-19, 10 µM single dose
Outline: as §3

[33] = test system: SR; conditions: Leukemia SR, 10 µM single dose
Outline: as §1

[34] = test system: SW-620; conditions: Colon SW-620, 10 µM single dose
Outline: as §5

[35] = test system: TK-10; conditions: Renal TK-10, 10 µM single dose
Outline: as §1

[36] = test system: U251; conditions: CNS U251, 10 µM single dose
Outline: as §2

[37] = test system: UACC-62; conditions: Melanoma UACC-62, 10 µM single dose
Outline: as §1

SMILES | Growth Percent [1] | Growth Percent [2] | Growth Percent [3] | Growth Percent [4] | Growth Percent [5] | Growth Percent [6] | Growth Percent [7] | Growth Percent [8] | Growth Percent [9] | Growth Percent [10] | Growth Percent [11] | Growth Percent [12] | Growth Percent [13] | Growth Percent [14] | Growth Percent [15] | Growth Percent [16] | Growth Percent [17] | Growth Percent [18] | Growth Percent [19] | Growth Percent [20] | further results
Cc1c(C(=O)NCCCC(=O)NO)sc2ncnc(Nc3ccc(NC(=O)Nc4ccccc4)cc3)c12 [Compound 12a, 1–(4-(6-((4-(hydroxyamino)-4-oxobutyl)carbamoyl)-5-methylthieno[2,3-d]pyrimidin-4-ylamino)phenyl)-3-phenylurea] | 99.6% and 99.69% | 95.4% and 95.45% | 105.0% and 105.06% | 92.8% and 92.88% | 107.0% and 107.09% | 111.9% and 111.95% | 108.5% and 108.51% | 93.22% | 99.5% | 101.4% and 101.44% | 100.0% and 100.08% | 106.3% and 106.34% | 93.57% | 104.5% and 104.57% | 92.4% and 92.41% | 92.1% and 92.16% | 102.6% and 102.68% | 93.3% and 93.35% | 99.7% and 99.76% | 102.6% and 102.61% | Growth Percent [21]: 87.7% and 87.71%; Growth Percent [22]: 103.7% and 103.79%; Growth Percent [23]: 107.1% and 107.19%; Growth Percent [24]: 104.6% and 104.68%; Growth Percent [25]: 98.9% and 98.99%; Growth Percent [26]: 100.1% and 100.13%; Growth Percent [27]: 92.5% and 92.51%; Growth Percent [28]: 102.0% and 102.06%; Growth Percent [29]: 96.5% and 96.54%; Growth Percent [30]: 109.4% and 109.43%; Growth Percent [31]: 99.0% and 99.09%; Growth Percent [32]: 97.1% and 97.12%; Growth Percent [33]: 105.3% and 105.35%; Growth Percent [34]: 103.3% and 103.39%; Growth Percent [35]: 111.3% and 111.37%; Growth Percent [36]: 92.3% and 92.32%; Growth Percent [37]: 99.1% and 99.19%
COc1cccc(NC(=O)Nc2ccc(Nc3ncnc4sc(C(=O)NCCC(=O)NO)c(C)c34)cc2)c1 [Compound 11b, 1–(4-(6-((3-(hydroxyamino)-3-oxopropyl)carbamoyl)-5-methylthieno[2,3-d]pyrimidin-4-ylamino)phenyl)-3–(3-methoxyphenyl)urea] | 96.2% and 96.21% | 106.0% and 106.03% | 96.1% and 96.14% | 95.6% and 95.62% | 105.0% and 105.08% | 113.1% and 113.15% | 102.0% and 102.08% | 90.7% and 90.77% | 101.6% and 101.62% | 103.9% and 103.99% | 103.2% and 103.23% | 100.7% | 91.6% and 91.65% | 107.0% and 107.03% | 90.5% and 90.58% | 100.5% and 100.55% | 107.2% and 107.22% | 87.7% and 87.79% | 100.7% and 100.74% | 101.9% and 101.91% | Growth Percent [21]: 94.6% and 94.61%; Growth Percent [22]: 102.4% and 102.42%; Growth Percent [23]: 108.9%; Growth Percent [24]: 99.2% and 99.26%; Growth Percent [25]: 102.0% and 102.03%; Growth Percent [26]: 104.1%; Growth Percent [27]: 94.3% and 94.39%; Growth Percent [28]: 100.0% and 100.08%; Growth Percent [29]: 98.0% and 98.07%; Growth Percent [30]: 105.3%; Growth Percent [31]: 105.1% and 105.11%; Growth Percent [32]: 98.1%; Growth Percent [33]: 112.2% and 112.27%; Growth Percent [34]: 103.0% and 103.05%; Growth Percent [35]: 109.9% and 109.96%; Growth Percent [36]: 97.1% and 97.12%; Growth Percent [37]: 95.3% and 95.33%
